Measured values from patent US7855076B2, “Use of discoidin domain receptor 1 (DDR1) and agents that affect the DDR1/collagen pathway” (The United States of America as represented by the …, priority 2002, dated 2010).

Key:
[1] = biological target: T1, DDR1a (Homo sapiens, UniProt Q08345); assay: Autophosphorylation of DDR1a overexpressed in THP-1 cells; assay type: cell-based
T1 construct: The full-length human DDR1a or DDR1b cDNA was ligated into the EcoRI/BamHI site of the retroviral vector pLXSN; expressed in transfected cells; host or cells: THP-1 human monocytic leukemia cells, retroviral vector pLXSN, G418-selected clones
Procedure: Using the retrovirus-infected cell lines, the effect of collagen type I on the phosphorylation of DDR1 proteins was tested. Two million cells in 3 ml complete medium were added onto collagen type I-coated plastic plates and incubated at 37° C. for various times. Cell lysates were prepared and immunoprecipitation was performed with the anti-DDR1 antibody. One-fourth of the immunoprecipitated samples was subjected to SDS-PAGE and Western blotting. The membranes were blotted with anti-pTyr and anti-DDR1 antibody. Low levels of constitutive autophosphorylation of both receptors were detected. The levels of autophosphorylation increased slightly at 15 minutes and peaked at 90 minutes after activation of the cells on collagen type I-coated plastic plates. The peak level was maintained for up to 240 minutes for DDR1a, which is consistent with the previously reported delayed kinetics of […] autophosphorylation in other cell types (Vogel FASEB J, (Suppl.), S77-S82, 1999). In contrast, autophosphorylation of DDR1b decreased after 90 minutes of collagen-activation.
Parental, mock, DDR1a- or DDR1b-overexpressing THP-1 cells were plated at 5×10^6/ml on uncoated tissue culture plates and stimulated with PMA (10 nM) for 24 hours, and then starved in RMPI 1640 without FCS for 10 hours. Subsequently cells were washed three times with PBS, and then incubated in the presence of 50 μg/ml collagen type I for various times.
Ten million cells were lysed on ice for 20 minutes in a buffer containing 50 mM NaCl, 20 mM Tris-HCl, 50 mM sodium fluoride, 30 mM Na4P2O7, 5 mM EGTA, 3 mM sodium orthovanadate, 1% Triton X-100, 1 mg/ml leupeptin, 1 mM PMSF, 1 mg/ml aprotinin, 1 mg/ml pepstatinA and 100 μM sodium orthovanadate treated with H2O2. […]
Eluted proteins were analyzed on 8% polyacrylamide gels by SDS-PAGE and transferred electrophoretically to nitrocellulose membranes at 150 mA for 1 hour by a semi-dry system. […] To detect phosphorylated or nonphosphorylated p38 MAP kinase or ATF-2, 20 μl of cell lysates were directly mixed with 20 μl of sample buffer and then analyzed.

[2] = system: MCP-1 mRNA; assay: MCP-1 mRNA expression in PMA-treated THP-1 cells by Northern blotting; assay type: cell-based, human
Procedure: The effect of collagen-activation on the expression of MCP-1 mRNA in PMA-treated parental, mock-transduced, DDR1a-overexpressing, and DDR1b-overexpressing THP-1 cells was measured by Northern blotting. THP-1 cells were cultured at the cell density of 5×10^6, cells/ml in the complete medium in the presence of 10 nM PMA in 6 well tissue culture plates that were either uncoated or collagen-coated. Total RNA was extracted from each culture by using TRIZOL reagent® and Northern blot analysis was performed as described (Yoshimura, J. Immunol. 150:5025, 1993). IL-1β cDNA was obtained by RT-PCR from a human monocyte cDNA library using the following primer pair: sense primer 5′-[…]-3′ (SEQ ID NO: 13) and anti-sense primer 5′-[…]-3′ (SEQ ID NO: 14). Each cDNA was labeled with [α-^32P]dCTP using Rediprime™ II random prime labeling system (Amersham Pharmacia Biotech).

[3] = system: THP-1 cells; assay: Proliferation of PMA-treated THP-1 cells; assay type: cell-based, human; conditions: DDR1b-overexpressing cells on collagen-coated plates, 10 nM PMA, 24 hour and 48 hour, compared with parental, mock or DDR1a cells
Procedure: One hundred μl of cell suspension (5×10^6/ml) were plated in 96-well tissue culture plates either uncoated or collagen-coated, and incubated at 37° C. in the presence of 10 nM phorbol 12-myristate 13 acetate (PMA) for 24 or 48 hours (FIG. 4A). Data are shown as the mean ±SD of 10 wells. *p<0.01 by Bonferroni/Dun with One Way Factorial ANOVA. Twenty μl of each cell lysate were loaded and Western blotting was performed. The expression levels of DDR1 in DDR1a- or DDR1b-overexpressing THP-1 cells before and after treatment with PMA plus collagen are shown in FIG. 4C. […]
One hundred μl of cell suspension (5×10^6/ml) were plated in 96-well tissue culture plates either collagen-coated or non-coated, and incubated at 37° C. in 5% CO2 humidified atmosphere in the presence of 10 nM PMA for 48 hours. Cell proliferation was measured by using the CellTiter 96 Aqueous Non-Radioactive Cell Proliferation Assay Kit (Promega, Madison, Wis.) according to the manufacture's protocol. Trypan-blue staining was also used to measure the number of live cells in each culture.

[4] = PMA-treated cells, 50 μg/ml collagen type I

T1 sequence (Q08345 19-876 isoform Q08345-2 limits assumed): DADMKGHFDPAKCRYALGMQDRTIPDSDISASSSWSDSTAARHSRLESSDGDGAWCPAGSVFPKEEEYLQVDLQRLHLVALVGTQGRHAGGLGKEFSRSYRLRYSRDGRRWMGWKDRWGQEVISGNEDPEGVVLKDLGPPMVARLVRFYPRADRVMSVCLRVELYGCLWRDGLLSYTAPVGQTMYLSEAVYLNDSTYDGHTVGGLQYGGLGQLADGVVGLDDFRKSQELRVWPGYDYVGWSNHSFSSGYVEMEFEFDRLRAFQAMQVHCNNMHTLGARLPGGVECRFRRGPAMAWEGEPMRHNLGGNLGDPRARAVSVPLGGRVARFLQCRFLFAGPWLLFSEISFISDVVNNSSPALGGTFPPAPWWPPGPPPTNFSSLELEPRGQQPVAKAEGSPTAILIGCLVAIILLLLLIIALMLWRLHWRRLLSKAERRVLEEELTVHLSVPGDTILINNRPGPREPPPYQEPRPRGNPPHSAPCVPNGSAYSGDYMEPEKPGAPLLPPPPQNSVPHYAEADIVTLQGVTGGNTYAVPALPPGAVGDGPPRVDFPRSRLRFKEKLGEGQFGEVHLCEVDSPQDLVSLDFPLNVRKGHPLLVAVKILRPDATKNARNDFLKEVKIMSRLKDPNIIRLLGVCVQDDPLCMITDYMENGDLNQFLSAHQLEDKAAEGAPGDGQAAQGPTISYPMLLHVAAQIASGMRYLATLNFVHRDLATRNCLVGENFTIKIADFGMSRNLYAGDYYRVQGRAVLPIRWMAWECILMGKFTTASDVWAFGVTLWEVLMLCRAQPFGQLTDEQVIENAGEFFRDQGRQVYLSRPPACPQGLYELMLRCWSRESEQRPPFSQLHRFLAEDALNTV

time autophosphorylation first detected [1, 4]: 90 min | time of peak autophosphorylation [1, 4]: 4 h | time of peak autophosphorylation ([1]; collagen type I-coated plates, cells not PMA-treated): 1.5 h
Substance: collagen
level of MCP-1 mRNA expression ([2]; PMA-treated DDR1b-overexpressing cells on collagen-coated plates): rapidly up-regulated | MCP-1 mRNA expression ([2]; PMA-treated parental cells): no effect | decrease of proliferation [3]: about 50%
